Series [1] relates to Xanthomonas campestris pv. campestris. Briefly: In vivo preventive test on Xanthomonas campestris pv. campestris (black rot on cabbage). Particulars: 31 ppm, cabbage plants sprayed 72 hours before inoculation; evaluated 8 or 10 days after inoculation. How it is done:
The tested active ingredients were prepared by homogenization in a mixture of acetone/Dimethyl sulfoxide/Tween®, and then diluted with water to obtain the desired active material concentration.
The young plants of cabbage were treated by spraying the active ingredient prepared as described above.
Control plants were treated only with an aqueous solution of acetone/Dimethyl sulfoxide/Tween®.
After 72 hours, the plants were contaminated by spraying the leaves with an aqueous bacteria suspension of Xanthomonas campestris pv. campestris. The contaminated cabbage plants were incubated for 8 or 10 days at 27° C. at 95% relative humidity.
The test was evaluated 8 or 10 days after the inoculation. 0% means an efficacy which corresponds to that of the control plants while an efficacy of 100% means that no disease was observed.

A short description of series [2]: Log P by HPLC on reversed phase columns (EEC directive 79/831 Annex V.A8). Particulars: reversed phase HPLC columns. Type of series: physicochemical. How it is done: In the above tables, measurement of Log P values was performed according to EEC directive 79/831 Annex V.A8 by HPLC (High Performance Liquid Chromatography) on reversed phase columns with the following methods: [^a] […] If more than one Log P value is available within the same method, all the values are given and separated by “+”. Calibration was done with straight-chain alkan2-ones (with 3 to 16 carbon atoms) with known Log P values (measurement of Log P values using retention times with linear interpolation between successive alkanones). Lambda-max-values were determined using UV-spectra from 200 nm to 400 nm and the peak values of the chromatographic signals.

For series [3], the system named is Pseudomonas syringae pv. tomato. Kind of series: Pseudomonas syringae pv. tomato in vitro cell test. Type of series: cell-based. The following applies: 20 ppm of active ingredient, liquid culture, 24 h incubation, read-out: efficacy (inhibition of bacteria growth). How it is done:
(§1) • Solvent: DMSO • Culture medium: LB broth medium (Luria Broth Miller) Sigma • Inoculum: bacteria suspension Compounds to be tested were solubilized in DMSO and the solution used to prepare the required range of concentrations. The final concentration of DMSO used in the assay was ≤1%. Inoculum was prepared from a pre-culture of bacteria grown in liquid medium and diluted to the desired optical density (OD). Compounds were evaluated for their ability to inhibit bacteria growth in liquid culture assay. The compounds were added in the desired concentrations to culture medium containing the bacteria suspension. After 24 h of incubation, the efficacy of compounds was determined by spectrometric measurement of bacteria growth. Inhibition was determined by comparing the absorbance values in wells containing the compounds with the absorbance in control wells without compounds.

The next series relates to Botrytis cinerea. Kind of series: Botrytis cinerea in vitro cell test. Type of series: cell-based. Particulars: 120 h, 20 ppm of active ingredient, liquid culture, 5 days incubation, read-out: efficacy (inhibition of fungal growth). How it is done:
• Solvent: DMSO • Culture medium: 14.6 g anhydrous D-glucose (VWR), 7.1 g Mycological Peptone (Oxoid), 1.4 g granulated Yeast Extract (Merck), QSP Iliter • Inoculum: spore suspension
Fungicides were solubilized in DMSO and the solution used to prepare the required range of concentrations. The final concentration of DMSO used in the assay was ≤[…]1%.
A spore suspension of B. cinerea was prepared and diluted to the desired spore density.
Fungicides were evaluated for their ability to inhibit spore germination and mycelium growth in liquid culture assay. The compounds were added in the desired concentration to the culture medium with spores. After 5 days incubation, fungi-toxicity of compounds was determined by spectrometric measurement of mycelium growth. Inhibition of fungal growth was determined by comparing the absorbance values in wells containing the fungicides with the absorbance in control wells without fungicides.

The subject of series [4] is Xanthomonas campestris pv. campestris. Briefly: Xanthomonas campestris pv. campestris in vitro cell test. It counts as cell-based. The following applies: 20 ppm of active ingredient, liquid culture, 24 h incubation, read-out: efficacy (inhibition of bacteria growth). As to the method: as §1, with “Compounds” for “Compounds to be tested”, “10%.” for “≤1%.”, “active ingredients.” for “compounds.”

Series [5] deals with salicylate responsive promoter sequence of the PR1 (pathogenesis-related protein I) gene (AT2G14610). Kind of series: Induction of defense gene expression in Arabidopsis thaliana (PR1 promoter-GFP reporter plants). Type of series: in vivo. Particulars: 300 ppm, sprayed; 3rd day after spraying; mock treated leaves set as 1.00. As to the method:
Arabidopsis thaliana reporter plants containing the coding sequence of a green fluorescent protein (GFP) linked to the salicylate responsive promoter sequence of the PR1 (pathogenesis-related protein I) gene (AT2G14610) were grown for five days and then sprayed with compounds. On the 3rd day after spraying, plant fluorescence was assessed with a MacroFluo instrument from Leica Microsystems (Wetzlar, Germany). Fluorescences were quantified with the Meta-Morph Microscopy Automation & Image Analysis Software (Molecular Devices, Sunnyvale, Calif., United States).
Background fluorescence in mock treated leaves was set as 1.00.

Where [6] appears, read: method [a]: LC-UV, acidic range, 0.1% formic acid in water and acetonitrile as eluent.
[7] abbreviates: value in the preparation example, method letter not given.

Structures are written as SMILES.

On to `O=C(NC1(C(=O)O)CC1)c1sc(Br)c(Br)c1Br` [I.14], for which the efficacy result in series [1] is “at least 80%”.

Broadly, the chromatographic logP is a lipophilicity value derived from retention on a column. Low readings indicate lower lipophilicity, high ones higher lipophilicity. In general, inhibition refers to how much of the control response was suppressed. Take `O=C(NC1(C(=O)O)CC1)c1sc(Cl)c(Cl)c1Br` [I.15, 1-{[(3-bromo-4,5-dichloro-2-thienyl)carbonyl]amino}cyclopropanecarboxylic Acid]: the chromatographic logP in series [2] (setting [6]) came to 2.37; in series [2] (setting [7]), 2.39. Further, the inhibition at 20 ppm (in series [3]; in the series on Botrytis cinerea; in series [4]) was at most 30% in each case.

The compound `O=C(O)c1ccccc1O` [Salicylic acid] showed a relative fluorescence value in series [5] of 2.70.

`O=C(NC1(C(=O)O)CC1)c1cc(Br)c(Br)s1` [CMP1]: the efficacy in series [1] worked out at 10%.

For `CCOC(=O)C1(NC(=O)c2sc(Br)c(Br)c2F)CC1` [I.01, ethyl 1-{[(4,5-dibromo-3-fluoro-2-thienyl)carbonyl]amino}cyclopropanecarboxylate], the chromatographic logP in series [2] (setting [6]) and in series [2] (setting [7]) was 3.13 in each case. Besides, the inhibition at 20 ppm (in series [3]; with Botrytis cinerea; in series [4]) was at most 30% each time.

Consider `CCOC(=O)C1(NC(=O)c2sc(Cl)c(Cl)c2Br)CC1` [I.03, Ethyl 1-{[(3-bromo-4,5-dichloro-2-thienyl)carbonyl]amino}cyclopropanecarboxylate], for which the inhibition at 20 ppm (in series [3]; with Botrytis cinerea; in series [4]) was at most 30% throughout.

The values above are taken from patent US20220274945A1, “SUBSTITUTED THIOPHENE CARBOXAMIDES AND DERIVATIVES THEREOF AS MICROBICIDES” (Bayer Aktiengesellschaft, priority 2019, published 2022).
